Assays:
[1] = tested on: AtCESA6 carrying missense mutations in prc1-1; experiment: Root growth of transgenic plants expressing mutated AtCESA6 in prc1-1; format: in vivo, Arabidopsis thaliana; details: D562N, D564N, D785N, Q823E, R826A, W827A in prc1-1
Source text: We then examined whether transgenic plants expressing AtCESA6 with predicted missense mutations at the catalytic site in prc1-1 background would have altered sensitivity to active ES20 analogs. […] However, the responses of two transgenic lines expressing AtCESA6 carrying missense mutations outside of the catalytic site (L365F and D395N) to nine active ES20 analogs were similar to those of wild-type plants (FIG. 2B).
To test the inhibitory effects of different chemicals on plant growth, wild-type Arabidopsis Col-0 plants were used. The seeds of plants used for growth assays or live cell imaging were sequentially sterilized with 50% bleach and 75% ethanol. […] To quantify the inhibitory effects of different ES20 active analogs on the root growth of Arabidopsis wildtype, EMS mutants, and transgenic plants expressing mutated AtCESA6 in prc1-1 background, sterilized Col-0, mutants, and transgenic plants seeds were sown on gridded Petri plates containing ½-strength MS medium supplemented with different concentrations of ES20 analogs. […] The plates were scanned using an Epson Perfection V550 scanner after 7 days of growth, and the root lengths of plants were quantified using ImageJ software. […] The Petri dishes were scanned, and hypocotyl length was measured using ImageJ. […]

[2] = tested on: Arabidopsis Col-0; experiment: Etiolated hypocotyl growth assay; format: in vivo, Arabidopsis thaliana; details: dark-grown Col-0, dosages examined
Procedure: To test the inhibitory effects of different chemicals on plant growth, wild-type Arabidopsis Col-0 plants were used. The seeds of plants used for growth assays or live cell imaging were sequentially sterilized with 50% bleach and 75% ethanol. After washing with sterilized water, the seeds were sown on ½-strength Murashige and Skoog (MS) medium supplemented with 3 mg/L of various chemicals. The plants were grown under continuous light of 130 μmol m^−2 s^−1 intensity illuminated by a Philips F25T8/TL841 25-watt bulb at 22° C. To quantify the inhibitory effects of different ES20 active analogs on the root growth of Arabidopsis wildtype, EMS mutants, and transgenic plants expressing mutated AtCESA6 in prc1-1 background, sterilized Col-0, mutants, and transgenic plants seeds were sown on gridded Petri plates containing ½-strength MS medium supplemented with different concentrations of ES20 analogs. The plates were placed in vertical orientation in the growth chamber for root measurement. The plates were scanned using an Epson Perfection V550 scanner after 7 days of growth, and the root lengths of plants were quantified using ImageJ software. […] The Petri dishes were scanned, and hypocotyl length was measured using ImageJ. Transgenic plants expressing fluorescence-tagged PIN2, PIP2a, HDEL, VHA-a1, and GOT1p were as reported previously (Xu and Scheres, Plant Cell, 2005, 17, 525-536).

[3] = tested on: rice (Oryza sativa); experiment: Rice seedling root growth; format: in vivo; details: 20 μM
Source text: ES20 has broad spectrum inhibitory effect on the growth of both dicotyledonous and monocotyledonous plants (Huang and Zhang, Plant Signal Behav. 2020, 15, 1780039). We tested whether ES20-1 has stronger inhibitory effect on the growth of monocotyledon plants than ES20. We grew rice (Oryza sativa) and maize (Zea mays) seedlings on the same concentrations of ES20 and ES20-1 and compared their effects on growth.

[4] = target: T1, GFP-CESA6c (central cytosolic domain of AtCESA6) (Arabidopsis thaliana, UniProt Q94JQ6); experiment: MST assay with GFP-CESA6c; format: binding
T1 construct: made in house; host or cells: E. coli
Source text: To obtain the central cytosolic domain of AtCESA6 for the MST assay, we inserted the GFP coding sequence into the SacI and PstI restriction enzyme sites of the pRSF-Duet-1 vector (Huang et al., 2020). The GFP coding sequence was amplified from the pUBN-GFP-DEST vector. The sequence encoding the central cytosolic domain of CESA6 (CESA6c) was amplified from Col-0 cDNA and fused with GFP at the C-terminus. CESA6c construct was used as a template for creating CESA6c^P595S construct by site-directed mutagenesis. Protein purification was performed as previously described (Huang et al., 2020).
MST assays were carried out using a Monolith NT.115 (NanoTemper) machine at the Chemical Genomics Facility at Purdue University. […] The ES20-1 was dissolved in DMSO, and the final concentration of DMSO was 5% (vol/vol). MST standard capillaries were used to load the samples into the MST instrument. Triplicate reactions were performed for each test. The MST data were processed using MO. Affinity Analysis Version 2.3 software.

[5] = tested on: PIN2-GFP, GFP-PIP2a, GFP-HDEL, VHA-a1-GFP, YFP-Got1p; experiment: Live-cell imaging of fluorescence-tagged marker proteins; format: cell-based, Arabidopsis thaliana; details: 6 μM, 2 h
Procedure: To test the effect of ES20-1 on cellular localization of endomembrane marker proteins, transgenic plants expressing different fluorescence-tagged proteins were grown on ½-strength MS agar plates for 5 d under continuous light. The seedlings were incubated in ½-strength MS liquid media supplemented with 6 μM ES20-1 for 2 h. The images were collected by Zeiss 710 laser scanning confocal microscope equipped with 40×/1.2 NA water objective. For images of GFP-tagged proteins, the 488-nm laser line was used as an excitation source and emission light at 493-598 nm was collected. For images of YFP-tagged proteins, the 514-nm laser line was used as an excitation source and the emission light at 519-621 nm was collected.

T1 sequence (Q94JQ6 322-868): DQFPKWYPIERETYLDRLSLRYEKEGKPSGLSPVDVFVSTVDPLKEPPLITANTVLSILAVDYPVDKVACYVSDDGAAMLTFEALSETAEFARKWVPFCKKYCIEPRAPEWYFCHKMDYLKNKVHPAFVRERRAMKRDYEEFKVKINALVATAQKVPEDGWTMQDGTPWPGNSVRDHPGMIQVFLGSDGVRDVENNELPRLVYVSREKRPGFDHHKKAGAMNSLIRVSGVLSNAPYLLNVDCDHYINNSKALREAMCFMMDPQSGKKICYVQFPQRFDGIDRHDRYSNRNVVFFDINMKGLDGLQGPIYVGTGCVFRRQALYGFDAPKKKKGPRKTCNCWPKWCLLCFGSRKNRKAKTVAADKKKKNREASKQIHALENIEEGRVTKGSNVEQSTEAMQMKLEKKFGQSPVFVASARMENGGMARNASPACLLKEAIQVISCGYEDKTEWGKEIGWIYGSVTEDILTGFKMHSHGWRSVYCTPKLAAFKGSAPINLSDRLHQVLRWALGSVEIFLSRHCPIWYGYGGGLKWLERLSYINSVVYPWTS

What does the source list for `Cc1ccccc1C(=O)NNC(=S)NC(=O)c1ccccc1` [ES20-1]?
sensitivity of transgenic lines with AtCESA6 catalytic site mutations [1]: Reduced sensitivity; hypocotyl growth inhibition compared with ES20 [2]: inhibited hypocotyl growth more strongly than ES20; rice root growth inhibition ([3]; 6-day-old seedlings): could inhibit the root growth; degree of rice root growth inhibition compared with ES20 ([3]; same dosage): much stronger than that of the same dosage of ES20; interaction with CESA6c ([4]; 100 nM GFP-CESA6c): interacted; relative binding affinity to CESA6c ([4]; MST): may have a higher binding affinity to CESA6c than ES20; cellular localization of PIN2-GFP [5]: not significantly affected; cellular localization of organelle marker proteins GFP-PIP2a, GFP-HDEL, VHA-a1-GFP, YFP-Got1p [5]: are not affected

Reference: patent US11938121B2, “Treatment of infections and biofilm formation using a cellulose synthase inhibitor” (Purdue Research Foundation, priority 2020, dated 2024)
